{
  "source": "patent US9375457B2",
  "about": "“Composition comprising Rhizoma coptidis, Cortex phellodendri and Fructus gardeniae and for treating neurodegenerative diseases” (Hong Kong Baptist University, priority 2013, dated 2016)",
  "key": {"[1]": {"details": "rat, in vivo; cited from earlier work"}, "[2]": {"system": "Aβ1-40 and Aβ1-42 in brain of TgCRND8 mice", "assay": "Aβ ELISA of serially extracted brain fractions of TgCRND8 mice", "format": "in vivo", "details": "oral, 25 mg/kg per day", "excerpt": "All animal handling experiments were approved by the Hong Kong Baptist University Committee on the Use of Human and Animal Subjects in Teaching and Research (HASC, approval #: 12-13/0030). TgCRND8 mice expressing human APP with Swedish (K670N/M671L) and Indiana (V717F) mutations were used to evaluate the effect of baicalein on Aβ. Heterozygous TgCRND8 mice on a C57BL/6J background were used to breed a colony of experimental animals. The TgCRND8 mouse is an early onset model of AD with visible Aβ deposits in the brains of the animals starting from 3 months of age as described in Chishti M A, Yang D S, Janus C, Phinney A L, Home P, Pearson J, Strome R, Zuker N, Loukides J, French J, Turner S, Lozza G, Grilli M, Kunicki S, Morissette C, Paquette J, Gervais F, Bergeron C, Fraser P E, Carlson G A, George-Hyslop P S, Westaway D. (2001) Early-onset amyloid deposition and cognitive deficits in transgenic mice expressing a double mutant form of amyloid precursor protein 695. J Biol Chem 276: 21562-21570. The animals are housed in a controlled environment under a 12/12 hours light/dark cycle. They are allowed free access to food and water. The oral administration of baicalein (25 mg/kg/d) is commenced at 2 months of age and ended at 5 months before being killed. A single dose (25 mg/kg/d) of baicalein is tested in animal study as no difference in baicalein levels in the brain between doses of 25 and 50 mg/kg/d is found in our pilot study. Control mice orally gavaged with tap water only for the same administration period. At the conclusion of the treatment period, mice were deeply anesthetized by chloral hydrate and perfused with phosphate buffered saline (PBS). The brains were then dissected and processed for Aβ immunostaining\nTo detect differences in the level of APP metabolic products among treatment groups, the levels of Aβ, F1-APP, pAPPThr668, CTFs, sAPPα and sAPPβ-sw are measured after a 3-step sequential extraction using Tris buffered saline (TBS) (pH 7.4), 1% Triton X-100/TBS (TBSX) and formic acid (FA) methods as described in Youmans K L, Leung S, Zhang J, Maus E, Baysac K, Bu G, Vassar R, Yu C, LaDu M J. (2011) Amyloid-β42 alters apolipoprotein E solubility in brains of mice with five familial AD mutations. J Neurosci Methods 196: 51-59. All extraction buffers also contained protease and phosphatase inhibitor cocktail (Roche Diagnostics, Basel, Switzerland). Snap frozen tissue is homogenized in 15 volumes (w/v) of TBS homogenization buffer and centrifuged at 100,000×g for 1 h at 4° C. using a Type 70 Ti rotor in an Optima™ L-80XP Ultracentrifuge (Beckman Coulter, Fla., USA). The TBS-soluble fraction is aliquoted, frozen in liquid nitrogen and stored at −80° C. The pellets are resuspended in 15 volumes of TBSX and kept on ice for 30 minutes, followed by a second centrifugation at 100,000×g for 1 hour at 4° C. The TBSX soluble fraction is aliquoted, frozen and stored as for the TBS fraction. The TBSX-insoluble pellet is resuspended in 2 mL of 70% FA and centrifuged at 100,000×g at 4° C. for 1 hour. The FA extracts are neutralized by the addition of 20 volumes of 1 M Tris pH 11, aliquoted and stored at −80° C. Total protein content in TBS- and TBSX-extracts is determined via BCA assay. […]\nThe levels of intracellular Aβ1-40 and Aβ1-42 are quantified by using a sandwich ELISA as previously described by Durairajan et al., 2011 with minor modification. Equal amounts of cell or brain lysates are used for Aβ quantification by sandwich ELISA. […]"}},
  "data": [
    {"smiles": "O=c1cc(-c2ccccc2)oc2cc(O)c(O)c(O)c12", "note": "[baicalein]", "values": [
      {"measurement": "brain bioavailability of baicalein (greater than berberine)", "setting": "[1]", "value": "1 to 10", "unit": "µM"},
      {"measurement": "effect on TBS soluble Aβ levels in brain", "setting": "[2]; TBS fraction", "value": "did not significantly affect"},
      {"measurement": "increase of Aβ1-40 in TBSX-soluble brain fraction", "setting": "[2]; TBSX fraction", "value": 35, "unit": "%"},
      {"measurement": "increase of Aβ1-42 in TBSX-soluble brain fraction", "setting": "[2]; TBSX fraction", "value": 65, "unit": "%"},
      {"measurement": "increase of Aβ1-40 in FA brain fraction", "setting": "[2]; formic acid fraction", "value": 80, "unit": "%"},
      {"measurement": "increase of Aβ1-42 in FA brain fraction", "setting": "[2]; formic acid fraction", "value": 32, "unit": "%"}
    ]}
  ]
}
